Patent US20080171783A1, “COMPOSITIONS AND METHODS FOR TREATING HYPERPROLIFERATIVE DISEASE” (Migenix Inc., priority 2006, published 2008)
Like-named read-outs stand apart in the source and are kept apart here.

Tests used:
HT29 = test: cells; details: for Percentage of Cell Control: HT29, single dose 10 μM, four days
Procedure: (§1) Compounds were solubilized at […] in DMSO and were stored at −20° C. Test compounds were initially tested at a single concentration of 10 μM and a subset of test compounds were further tested in selected cell lines using a six concentration dose response curve.
(§2) Cell Preparation Cancer cell lines were passaged in T-75 flasks prior to use in the assay in cell culture medium recommended by the ATCC (American Type Culture Collection; Table 6). On the day preceding the assay, the cells were split 1:2 to assure they were in an exponential growth phase at the time of compound treatment. Total cell and viability quantification was performed using a hemocytometer and Trypan Blue dye exclusion. […] The cells were resuspended at the appropriate cell per mL (Table 6) in tissue culture medium and added to the microtitre plates in a volume of 100 μL. Colon cell lines were incubated overnight at 37° C./5% CO2 to allow for cell adherence to the plates.
(§3) Plate Format: Each plate contains cell control wells (cells only), drug calorimetric control wells (drug only) as well as experimental wells (drug plus cells). Samples were tested in triplicate at a concentration of 10 μM and five half-logarithmic dilutions.
(§4) Cell Viability by XTT: Following incubation at 37° C. in a 5% CO2 incubator for four days, the test plates were stained with the tetrazolium dye XTT (2,3-bis(2-methoxy-4-nitro-5-sulfophenyl)-5-[(phenylamino)carbonyl]-2H-tetrazolium hydroxide). XTT-tetrazolium was metabolized by the mitochondrial enzymes of metabolically active cells to a soluble formazan product. XTT solution was prepared daily as a stock of 1 mg/mL in RPMI1640. Phenazine methosulfate (PMS) solution was prepared at 0.15 mg/mL in phosphate buffered saline (PBS) and stored in the dark at −20° C. XTT/PMS stock was prepared immediately before use by adding 40 μL of PMS per mL of XTT solution. Fifty (50) microlitres of XTT/PMS was added to each well of the plate and the plate was reincubated for 4 hours at 37° C. Plates were sealed with adhesive plate sealers and shaken gently or inverted several times to mix the soluble formazan product and the plate was read spectrophotometrically at 450/650 nm with a Molecular Devices Vmax plate reader. […] An Average Response Factor (ARF) was calculated for each compound by averaging the ten Percentage of Control values for the cell lines. […] Deviations below 100% control indicate activity. The concentration of each tested compound is 10 μM.

Jurkat = test: Cell viability by XTT; details: for Percentage of Cell Control: single dose 10 μM, four days
Procedure: as §1, §2, §3, §4

THP-1 = test: Cell viability by XTT; details: for Percentage of Cell Control: THP-1, single dose 10 μM, four days
Procedure: as §1, §2, §3, §4

Caco-2 = test: Cell viability by XTT; details: for Percentage of Cell Control: Caco-2, single dose 10 μM, four days
Procedure: as §1, §2, §3, §4

HCT-15 = test: Cell viability by XTT; type: cell-based; details: HCT-15, single dose 10 μM, four days
Procedure: as §1, §2, §3, §4

HL-60 = test: Cell viability by XTT; type: cell-based; details: HL-60, single dose 10 μM, four days
Procedure: as §1, §2, §3, §4

Calf polymerase alpha = biological target: T1, Calf polymerase alpha (Bos taurus, UniProt A0AAA9TD94); test: Calf polymerase alpha inhibition (Replizyme kit); type: biochemical; details: at 10 μM, single point screening
T1 construct: purchased Replizyme Ltd (Heslington, York, UK)
T1 sequence (A0AAA9TD94 1-1441): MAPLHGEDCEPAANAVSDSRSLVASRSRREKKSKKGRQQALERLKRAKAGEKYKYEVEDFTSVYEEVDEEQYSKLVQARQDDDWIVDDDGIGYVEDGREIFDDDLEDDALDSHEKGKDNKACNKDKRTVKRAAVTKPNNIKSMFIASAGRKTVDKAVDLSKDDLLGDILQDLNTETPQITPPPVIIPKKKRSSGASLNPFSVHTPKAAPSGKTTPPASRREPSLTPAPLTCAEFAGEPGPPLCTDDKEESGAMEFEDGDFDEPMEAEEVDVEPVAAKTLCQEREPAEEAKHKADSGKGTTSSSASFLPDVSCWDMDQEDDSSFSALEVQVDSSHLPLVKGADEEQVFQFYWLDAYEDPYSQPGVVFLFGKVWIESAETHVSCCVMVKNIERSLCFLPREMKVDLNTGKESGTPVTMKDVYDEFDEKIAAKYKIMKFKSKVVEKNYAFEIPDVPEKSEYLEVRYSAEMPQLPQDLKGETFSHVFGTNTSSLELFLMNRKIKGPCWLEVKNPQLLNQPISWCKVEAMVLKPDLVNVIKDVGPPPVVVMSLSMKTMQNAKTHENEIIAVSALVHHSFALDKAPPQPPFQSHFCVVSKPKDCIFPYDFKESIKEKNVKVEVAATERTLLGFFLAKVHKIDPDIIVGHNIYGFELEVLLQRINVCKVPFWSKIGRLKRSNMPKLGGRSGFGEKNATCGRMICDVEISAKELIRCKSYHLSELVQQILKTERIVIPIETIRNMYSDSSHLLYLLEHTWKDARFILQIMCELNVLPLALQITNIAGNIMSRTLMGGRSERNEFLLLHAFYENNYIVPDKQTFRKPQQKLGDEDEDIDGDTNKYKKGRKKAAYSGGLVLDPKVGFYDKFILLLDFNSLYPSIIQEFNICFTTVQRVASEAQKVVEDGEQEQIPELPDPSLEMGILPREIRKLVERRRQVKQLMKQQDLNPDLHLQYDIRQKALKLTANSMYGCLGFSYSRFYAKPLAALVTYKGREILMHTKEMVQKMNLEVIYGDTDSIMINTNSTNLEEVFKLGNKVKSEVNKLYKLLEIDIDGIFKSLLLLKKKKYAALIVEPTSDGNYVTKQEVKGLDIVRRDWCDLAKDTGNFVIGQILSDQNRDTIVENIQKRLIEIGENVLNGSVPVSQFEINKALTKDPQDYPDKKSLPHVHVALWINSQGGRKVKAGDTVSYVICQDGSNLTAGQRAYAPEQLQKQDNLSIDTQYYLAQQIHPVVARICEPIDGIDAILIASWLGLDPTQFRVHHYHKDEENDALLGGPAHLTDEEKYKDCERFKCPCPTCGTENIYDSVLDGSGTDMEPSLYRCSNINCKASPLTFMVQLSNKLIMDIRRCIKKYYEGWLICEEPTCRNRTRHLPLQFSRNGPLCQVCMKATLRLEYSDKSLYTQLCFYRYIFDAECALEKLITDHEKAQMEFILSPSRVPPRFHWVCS
Procedure: Calf polymerase alpha and human polymerase alpha investigations were performed with a kit available from Replizyme Ltd (Heslington, York, UK).

[1] = system: 5 Leukemia and 5 Colon Cancer Cell Lines; test: Cell viability by XTT, cell line panel; type: cell-based; details: for ARF (Average Response Factor, Average Percentage of Control) / Range (Percentage of Control over the same 10 cell lines): 10 μM; for Range (Percentage of Control over the same 10 cell lines): lowest to highest of the ten cell lines
Procedure: as §1, §2, §3, §4

[2] = read-out: Activity (TC50), Caco-2, six concentration dose response, Table 9
[3] = average of the ten Percentage of Control values

| Structure (SMILES) | Percentage of Cell Control (HT29) | CC50 (Jurkat; read-out: Activity (TC50), six concentration dose response, Table 9) | Percentage of Cell Control (Jurkat) | Percentage of Cell Control (THP-1) | CC50 (THP-1; read-out: Activity (TC50), THP-1, six concentration dose response, Table 9) | Percentage of Cell Control (Caco-2) | CC50 (Caco-2; [2]) | Percentage of Cell Control (HCT-15) | Percentage of Cell Control (HL-60) | % Inhibition (Calf polymerase alpha) | ARF (Average Response Factor, Average Percentage of Control) [1, 3] | Range (Percentage of Control over the same 10 cell lines) [1] | CC50 (HT29; Homo sapiens, HT-29, read-out: Activity (TC50)) | CC50 (Jurkat; Homo sapiens, read-out: Activity (TC50)) | CC50 (THP-1; Homo sapiens, THP-1, read-out: Activity (TC50)) | CC50 (Caco-2; Homo sapiens, Caco-2, read-out: Activity (TC50)) | inhibition at 10 µM (Calf polymerase alpha) | viability at 10 µM ([1]; average of the ten Percentage of Control values, read-out: ARF (Average Response Factor, Average Percentage of Control)) |
| --- | --- | --- | --- | --- | --- | --- | --- | --- | --- | --- | --- | --- | --- | --- | --- | --- | --- | --- |
| Cc1ccc(NC(=O)[C@H](CCCCN)NCc2ccc(NC(=O)Nc3ccncc3)cc2)cc1 [Compound 262, (S)-6-AMINO-2-[4-(3-PYRIDIN-4-YL-UREIDO)-BENZYLAMINO]-HEXANOIC ACID P-TOLYLAMIDE] | 63.8% | 5.5 µM | 3.1% | 49.4% | 7.9 µM | 21.6% | 8.7 µM | 75% | 53.1% | 102% | 69.4% | 3.1 to 121.1% |  |  |  |  |  |  |
| Cc1ccc(NC(=O)[C@H](CCCCN)NC(=O)Cc2ccc(-c3ccccc3)cc2)cc1 [Compound 50, (S)-6-AMINO-2-(2-BIPHENYL-4-YL-ACETYLAMINO)-HEXANOIC ACID P-TOLYLAMIDE] | 27.7% |  | 4.6% | 89.7% |  | 8.3% | 9.4 µM | 114.3% | 91.7% | 71% | 77.7% | 4.6 to 122% |  |  |  |  |  |  |
| NCCCC[C@H](NC(=O)OCC1c2ccccc2-c2ccccc21)C(=O)Nc1ccc(OCc2ccccc2)c(Cl)c1 [Compound 210, (S)-[5-AMINO-1-(4-BENZYLOXY-3-CHLORO-PHENYLCARBAMOYL)-PENTYL]-CARBAMIC ACID 9H-FLUOREN-9-YLMETHYL ESTER] | 0% |  | 9.3% | 0% |  | 2.4% |  | 71.8% | 0.4% |  |  | 0 to 94.0% | 9.8 µM | 5.4 µM | 7.7 µM | 10 µM | 104% | 41.1% |
